Columns and labels:
Type in all cases: physicochemical
[1] = Solubility of glycerol-containing formulations (post vortexing, 30 min and overnight at 18° C.); conditions: compound 2 mg/mL; for solubility at 30 min / solubility / solubility at 30 s: glycerol-containing formulation; for solubility at 30 min / solubility: 18 °C; for solubility at 30 min: after 30 minutes incubation at 18° C.; for solubility at 30 s: post vortexing
Method: (§1) Tables 3A, 3B, and 3C describe solubility experiments conducted with the indicated compounds under the listed conditions. Vortexing was conducted using a Denville Vortexer 59 (Denville Scientific Inc.), at maximum speed for 30 seconds. As used herein, the term overnight refers to a period lasting at least about 12-24 hours.

[2] = Solubility of BSA-containing formulations (post vortexing, 30 min and overnight at 18° C.); conditions: compound 2 mg/mL; for solubility at 30 min / solubility: BSA-containing formulation, 18 °C, aqueous with cosolvent or surfactant or cyclodextrin; for solubility at 30 min: after 30 minutes incubation at 18° C.
Method: Vortexing was conducted using a Denville Vortexer 59 (Denville Scientific Inc.), at maximum speed for 30 seconds. As used herein, the term overnight refers to a period lasting at least about 12-24 hours.

[3] = Solubility of sodium deoxycholate-containing formulations (post vortexing, 30 min and overnight at 18° C.); conditions: compound 2 mg/mL; for solubility at 30 s: post vortexing
Method: as §1, with “5A, 5B,” for “3A, 3B,”, “5C” for “3C”

## CCN1/C(=C/C=C/c2sc3ccccc3[n+]2CC)Sc2ccccc21 [JAC-B1, 3′,3′-Diethylthiacarbocyanine iodide]
[1]; 50% glycerol, overnight incubation at 18° C.
  Solubility of glycerol-containing formulations after overnight incubation at 18° C., 50%: MFG
[1]; aqueous with cosolvent or surfactant or cyclodextrin, 10% glycerol, read-out: Solubility of glycerol-containing formulations after 30 min incubation at 18° C., 10%
  solubility at 30 min: < 2000 µg/mL
[1]; aqueous with cosolvent or surfactant or cyclodextrin, 10% glycerol, overnight incubation at 18° C., read-out: Solubility of glycerol-containing formulations after overnight incubation at 18° C., 10%
  solubility: < 2000 µg/mL
[1]; aqueous with cosolvent or surfactant or cyclodextrin, 20% glycerol, read-out: Solubility of glycerol-containing formulations after 30 min incubation at 18° C., 20%
  solubility at 30 min: < 2000 µg/mL
[1]; aqueous with cosolvent or surfactant or cyclodextrin, 20% glycerol, overnight incubation at 18° C., read-out: Solubility of glycerol-containing formulations after overnight incubation at 18° C., 20%
  solubility: < 2000 µg/mL
[1]; aqueous with cosolvent or surfactant or cyclodextrin, 30% glycerol, read-out: Solubility of glycerol-containing formulations after 30 min incubation at 18° C., 30%
  solubility at 30 min: < 2000 µg/mL
[1]; aqueous with cosolvent or surfactant or cyclodextrin, 30% glycerol, overnight incubation at 18° C., read-out: Solubility of glycerol-containing formulations after overnight incubation at 18° C., 30%
  solubility: < 2000 µg/mL
[1]; aqueous with cosolvent or surfactant or cyclodextrin, 40% glycerol, read-out: Solubility of glycerol-containing formulations after 30 min incubation at 18° C., 40%
  solubility at 30 min: < 2000 µg/mL
[1]; aqueous with cosolvent or surfactant or cyclodextrin, 40% glycerol, overnight incubation at 18° C., read-out: Solubility of glycerol-containing formulations after overnight incubation at 18° C., 40%
  solubility: < 2000 µg/mL
[1]; aqueous with cosolvent or surfactant or cyclodextrin, 50% glycerol, read-out: Solubility of glycerol-containing formulations after 30 min incubation at 18° C., 50%
  solubility at 30 min: > 2000 µg/mL
[1]; 0% glycerol, read-out: Solubility of glycerol-containing formulations after 30 min incubation at 18° C., 0%
  solubility at 30 min: < 2000 µg/mL
[1]; 0% glycerol, overnight incubation at 18° C., read-out: Solubility of glycerol-containing formulations after overnight incubation at 18° C., 0%
  solubility: < 2000 µg/mL
[1]; aqueous with cosolvent or surfactant or cyclodextrin, 10% glycerol, read-out: Solubility of glycerol-containing formulations post vortexing, 10%
  solubility at 30 s: < 2000 µg/mL
[1]; aqueous with cosolvent or surfactant or cyclodextrin, 20% glycerol, read-out: Solubility of glycerol-containing formulations post vortexing, 20%
  solubility at 30 s: < 2000 µg/mL
[1]; aqueous with cosolvent or surfactant or cyclodextrin, 30% glycerol, read-out: Solubility of glycerol-containing formulations post vortexing, 30%
  solubility at 30 s: < 2000 µg/mL
[1]; aqueous with cosolvent or surfactant or cyclodextrin, 40% glycerol, read-out: Solubility of glycerol-containing formulations post vortexing, 40%
  solubility at 30 s: < 2000 µg/mL
[1]; aqueous with cosolvent or surfactant or cyclodextrin, 50% glycerol, read-out: Solubility of glycerol-containing formulations post vortexing, 50%
  solubility at 30 s: > 2000 µg/mL
[1]; 0% glycerol, read-out: Solubility of glycerol-containing formulations post vortexing, 0%
  solubility at 30 s: < 2000 µg/mL
[2]; BSA 5 mg/mL, read-out: Solubility of BSA-containing formulations after 30 min incubation at 18° C., 5 mg/mL
  solubility at 30 min: < 2000 µg/mL
[2]; BSA 10 mg/mL, read-out: Solubility of BSA-containing formulations after 30 min incubation at 18° C., 10 mg/mL
  solubility at 30 min: < 2000 µg/mL
[2]; BSA 15 mg/mL, read-out: Solubility of BSA-containing formulations after 30 min incubation at 18° C., 15 mg/mL
  solubility at 30 min: < 2000 µg/mL
[2]; BSA 25 mg/mL, read-out: Solubility of BSA-containing formulations after 30 min incubation at 18° C., 25 mg/mL
  solubility at 30 min: > 2000 µg/mL
[2]; BSA 80 mg/mL, read-out: Solubility of BSA-containing formulations after 30 min incubation at 18° C., 80 mg/mL
  solubility at 30 min: > 2000 µg/mL
[2]; BSA 80 mg/mL, overnight incubation at 18° C., read-out: Solubility of BSA-containing formulations after overnight incubation at 18° C., 80 mg/mL
  solubility: > 2000 µg/mL
[2]; BSA 100 mg/mL, read-out: Solubility of BSA-containing formulations after 30 min incubation at 18° C., 100 mg/mL
  solubility at 30 min: > 2000 µg/mL
[2]; BSA 100 mg/mL, overnight incubation at 18° C., read-out: Solubility of BSA-containing formulations after overnight incubation at 18° C., 100 mg/mL
  solubility: > 2000 µg/mL
[2]; BSA 5 mg/mL, overnight incubation at 18° C.
  Solubility of BSA-containing formulations after overnight incubation at 18° C., 5 mg/mL: MFG
[2]; BSA 10 mg/mL, overnight incubation at 18° C.
  Solubility of BSA-containing formulations after overnight incubation at 18° C., 10 mg/mL: MFG
[2]; BSA 15 mg/mL, overnight incubation at 18° C.
  Solubility of BSA-containing formulations after overnight incubation at 18° C., 15 mg/mL: MFG
[2]; BSA 25 mg/mL, overnight incubation at 18° C.
  Solubility of BSA-containing formulations after overnight incubation at 18° C., 25 mg/mL: MFG
[3]; sodium deoxycholate 50 mg/mL, after 30 minutes incubation at 18° C.
  Solubility of sodium deoxycholate-containing formulations after 30 min incubation at 18° C., 50 mg/mL: MFG
[3]; sodium deoxycholate 100 mg/mL, after 30 minutes incubation at 18° C.
  Solubility of sodium deoxycholate-containing formulations after 30 min incubation at 18° C., 100 mg/mL: MFG
[3]; sodium deoxycholate-containing formulation, aqueous with cosolvent or surfactant or cyclodextrin, sodium deoxycholate 12.5 mg/mL, read-out: Solubility of sodium deoxycholate-containing formulations post vortexing, 12.5 mg/mL
  solubility at 30 s: < 2000 µg/mL
[3]; sodium deoxycholate-containing formulation, aqueous with cosolvent or surfactant or cyclodextrin, sodium deoxycholate 25 mg/mL, read-out: Solubility of sodium deoxycholate-containing formulations post vortexing, 25 mg/mL
  solubility at 30 s: < 2000 µg/mL
[3]; sodium deoxycholate-containing formulation, aqueous with cosolvent or surfactant or cyclodextrin, sodium deoxycholate 50 mg/mL, read-out: Solubility of sodium deoxycholate-containing formulations post vortexing, 50 mg/mL
  solubility at 30 s: < 2000 µg/mL
[3]; sodium deoxycholate-containing formulation, aqueous with cosolvent or surfactant or cyclodextrin, sodium deoxycholate 100 mg/mL, read-out: Solubility of sodium deoxycholate-containing formulations post vortexing, 100 mg/mL
  solubility at 30 s: < 2000 µg/mL
[3]; sodium deoxycholate-containing formulation, aqueous with cosolvent or surfactant or cyclodextrin, sodium deoxycholate 12.5 mg/mL, after 30 minutes incubation at 18° C.
  solubility at 30 min: < 2000 µg/mL
[3]; sodium deoxycholate-containing formulation, aqueous with cosolvent or surfactant or cyclodextrin, sodium deoxycholate 12.5 mg/mL, overnight incubation at 18° C., read-out: Solubility of sodium deoxycholate-containing formulations after overnight incubation at 18° C., 12.5 mg/mL
  solubility: < 2000 µg/mL

— US20230150960A1, “COMPOSITIONS AND METHODS OF USING CYANINE DYES TO TARGET CANCER AND MITOCHONDRIA” (Thomas Jefferson University, priority 2020, published 2023)
